Experiments:
[1] = tested on: B16F10-Cas9 cells pulsed with SIINFEKL peptide, co-cultured with OT-I T cells; experiment: Genome-scale CRISPR-Cas9 screen, selection with OT-I T cells; assay type: cell-based, mouse; settings: Table 3; B16F10-Cas9 cells pulsed with SIINFEKL, co-cultured with OT-I T cells 1:1 for one day; negative = depleted, positive = enriched
[2] = tested on: B16F10-Cas9 cells co-cultured with Pmel-1 T cells; experiment: Genome-scale CRISPR-Cas9 screen, selection with Pmel-1 T cells; assay type: cell-based, mouse; settings: Table 3; B16F10-Cas9 cells pre-treated with IFNγ, co-cultured with Pmel-1 T cells 1:1 for three days; negative = depleted, positive = enriched

| Sequence | OT1 (sgRNA Log(2) fold change, OT-I selection versus control T cells) [1] | Pmel+ (sgRNA Log(2) fold change, Pmel-1 selection versus control T cells) [2] |
| --- | --- | --- |
| CAGCAGCAAGTTCACAGGTG (chemistry not fully specified) | -3.04 | -1.37 |
| CAGCATTGACAATACGACCA (chemistry not fully specified) | -3.84 | 0.62 |
| CAGCCTGCTGAGGATCCAGA (chemistry not fully specified) | -2.33 | -1.07 |
| CAGGACTTCTGGTCTATCCG (chemistry not fully specified) | -3.14 | -1.47 |
| CAGTGTCACAACCCACCGGA (chemistry not fully specified) | -2.75 | 0.23 |
| CATAGCCAGAACAGTTGACC (chemistry not fully specified) | -2.44 | -0.66 |
| CATGAGGTAGAATAGTTCGT (chemistry not fully specified) | -0.65 | 2.15 |
| CATGCAATACATGCCAAAGG (chemistry not fully specified) | -2.39 | -0.22 |
| CCAAACACCCCACATATGGT (chemistry not fully specified) | -2.24 | -0.79 |
| CCATATCCAAATAGCCACAG (chemistry not fully specified) | -3.59 | -2.19 |
| CCATTGTATAACTGTCTGCG (chemistry not fully specified) | -3.02 | -1.14 |
| CCCACGAATTCGTCACAGGG (chemistry not fully specified) | 1.32 | 2.63 |
| CCCGGACTGGATCAACACCG (chemistry not fully specified) | -3.76 | -0.09 |
| CCCGGGAATAGCGTACAGCT (chemistry not fully specified) | -2.71 | 0.70 |
| CCGAGACCCCAATAGTGCAA (chemistry not fully specified) | 0.71 | 2.89 |
| CCGCAGCAGATAGACACCAT (chemistry not fully specified) | -2.54 | -0.11 |
| CCGCTCGAAGAAGCACTCCT (chemistry not fully specified) | -3.04 | 0.95 |
| CCTCCGACATTCCGTAACTG (chemistry not fully specified) | -2.32 | -1.90 |
| CCTGGGCTAGCACATAACCA (chemistry not fully specified) | -3.35 | 0.10 |
| CCTGGGTACCAACTGACGAA (chemistry not fully specified) | -2.91 | -2.96 |
| CCTTCAATAACGTTAAACAG (chemistry not fully specified) | -2.79 | -0.26 |
| CCTTTAGTAGCAGAAGCCGC (chemistry not fully specified) | -2.95 | 0.73 |
| CGACGCAAGTGGGAGCAGAG (chemistry not fully specified) | -2.09 | 3.91 |
| CGATGCCATTCGAATGACAG (chemistry not fully specified) | 1.57 | 8.40 |
| CGGATGGCCACACGTAACAG (chemistry not fully specified) | 0.20 | 3.00 |
| CGGCCCGCCGATGTCGTGTG (chemistry not fully specified) | -3.19 | -0.25 |

| Sequence | OT1 (sgRNA Log(2) fold change, OT-I selection versus control T cells) [1] | Pmel+ (sgRNA Log(2) fold change, Pmel-1 selection versus control T cells) [2] |
| --- | --- | --- |
| CGGGTATTACAGACTAACTG (chemistry not fully specified) | 2.71 | 3.20 |
| CTCAGCTGGATACAACCAGG (chemistry not fully specified) | -2.27 | 0.00 |
| CTCTTCCAACACGTCCAAGT (chemistry not fully specified) | 0.64 | 3.56 |
| CTGAGCATGTCTAACACGAG (chemistry not fully specified) | -2.99 | -0.37 |
| CTGCACCAATGTTGGTCACG (chemistry not fully specified) | 0.32 | 2.82 |
| CTGCAGCATATCGTCAACCA (chemistry not fully specified) | -2.30 | -0.72 |
| CTGTTACCTTCATAGATAAG (chemistry not fully specified) | -2.50 | 0.00 |
| CTTCAGATCTCTCTCGAATG (chemistry not fully specified) | -2.84 | -2.11 |
| CTTCCTGGACATCGACGTGG (chemistry not fully specified) | -2.12 | 0.56 |
| CTTGGTCAAATACACTACAG (chemistry not fully specified) | 1.61 | 2.66 |
| CTTGTGACGGTAATTCTGAA (chemistry not fully specified) | -2.48 | 0.00 |
| GAAAAATCTGTACACCACCG (chemistry not fully specified) | -2.64 | -0.30 |
| GAAAAGCAAGCGTAATCTCC (chemistry not fully specified) | 2.70 | 8.13 |
| GAACACTCAGCAAATTACAG (chemistry not fully specified) | -2.58 | -0.81 |
| GAAGACCAAAGAAGTTCATG (chemistry not fully specified) | -0.52 | 2.37 |
| GAAGTAAAGGGATTTAACAG (chemistry not fully specified) | -2.59 | -0.84 |
| GAATACGAAGCAGAAAAGGT (chemistry not fully specified) | -2.50 | 0.00 |
| GAATCCTCCAGAAGGAATCG (chemistry not fully specified) | 0.26 | 2.99 |
| GAATCTGAATGGAGGAACCT (chemistry not fully specified) | -2.21 | 0.00 |
| GAATGATATTATAGCGACGA (chemistry not fully specified) | -2.20 | 0.59 |
| GAATTGCAACGCCCACACCG (chemistry not fully specified) | -3.93 | 0.39 |
| GACAAGATGACAAACCTGGT (chemistry not fully specified) | 1.65 | 3.45 |
| GAGATCTGCACATTCCGCAC (chemistry not fully specified) | -2.69 | -0.78 |
| GAGTTGCAGCCAGATACGCG (chemistry not fully specified) | -3.25 | -1.28 |
| GATATGCTACAGGACCTTCG (chemistry not fully specified) | -2.83 | 0.44 |
| GATGTGTCCCTAGTCTACCG (chemistry not fully specified) | -3.40 | -0.24 |
